Biological target: Cyclin-dependent kinase 5 (Rattus norvegicus, UniProt Q03114)
Test: Inhibition of rat fetal brain CDK5 assessed as phosphorylated histone H1 levels by immuno-precipitation
Type: tissue-based

Sequence of Cyclin-dependent kinase 5 (Q03114 whole entry): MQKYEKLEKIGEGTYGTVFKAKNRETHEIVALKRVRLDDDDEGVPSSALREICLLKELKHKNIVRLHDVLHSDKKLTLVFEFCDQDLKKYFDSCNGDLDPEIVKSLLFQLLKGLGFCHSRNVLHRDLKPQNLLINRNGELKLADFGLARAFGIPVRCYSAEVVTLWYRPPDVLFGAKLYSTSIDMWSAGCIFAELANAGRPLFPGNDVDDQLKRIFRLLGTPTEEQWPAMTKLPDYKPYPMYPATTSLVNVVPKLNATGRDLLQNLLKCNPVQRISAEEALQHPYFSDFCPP

SMILES	EC50 [µM]
O=c1cc(-c2ccc(O)c(O)c2)oc2cc(O)cc(O)c12 [LUTEOLIN]	> 250
COc1c(O)cc2oc(-c3ccc(O)c(O)c3)cc(=O)c2c1O [EUPAFOLIN]	40
COc1cc(-c2oc3c(OC)c(OC)c(OC)c(O)c3c(=O)c2OC)ccc1O	> 25
COc1c(O)cc2oc(-c3ccc(O)cc3)cc(=O)c2c1O [HISPIDULIN]	19.1
O=c1c(O)c(-c2ccc(O)cc2)oc2cc(O)cc(O)c12 [KAEMPFEROL]	66.1
O=c1cc(-c2ccc(O)cc2)oc2cc(O)cc(O)c12 [APIGENIN]	> 250
O=c1c(O)c(-c2cc(O)c(O)c(O)c2)oc2cc(O)cc(O)c12 [MYRICETIN]	71.1
COc1cc2oc(-c3ccccc3)cc(=O)c2c(OC)c1O	> 250

— ChEMBL document CHEMBL1146503, “Effects of natural flavones and flavonols on the kinase activity of Cdk5” (J Nat Prod, 2004)
